Data on six compounds can be found in US8974827B2, “Nanoparticles comprising a non-ionizable cellulosic polymer and an amphiphilic non-ionizable block copolymer” (Bend Research, Inc., priority 2007, dated 2015).

Data set [1] in a line: Log P of drug. To be noted: octanol/water. It is filed as physicochemical. An excerpt:
The first property of hydrophobic drugs is that they are extremely hydrophobic. Log P, defined as the base 10 logarithm of the ratio of the drug solubility in octanol to the drug solubility in water, is a widely accepted measure of hydrophobicity. By “extremely hydrophobic” is meant that the Log P value of the drug is at least 4.0, preferably at least 4.5, and most preferably at least 5.0. Log P may be measured experimentally or calculated using methods known in the art. When using a calculated value for Log P, the highest value calculated using any generally accepted method for calculating Log P is used. Calculated Log P values are often referred to by the calculation method, such as Clog P, Alog P, and Mlog P. The Log P may also be estimated using fragmentation methods, such as Crippen's fragmentation method (27 J. Chem. Inf. Comput. Sci. 21 (1987)); Viswanadhan's fragmentation method (29 J. Chem. Inf. Comput. Sci. 163 (1989)); or Broto's fragmentation method (19 Eur. J. Med. Chem.-Chim. Theor. 71 (1984).

Data set [2] is described as follows: Free drug analysis by centrifuge filtration (30,000-dalton cutoff) and HPLC. It is filed as physicochemical. To be noted: 30,000-dalton cutoff centrifuge filter, HPLC. The procedure:
The nanoparticle suspension was centrifuged for 3 minutes at 13,000 rpm using a 30,000-dalton molecular-weight cutoff centrifuge tube filter, and 50 μL of the supernatant was added to 250 μL acetonitrile. The sample was assayed by HPLC.

Data set [3] is described as follows: Solubility of drug in water. It is filed as physicochemical. As for the experimental part: The utility of the invention increases as the water solubility of the drug decreases. […] The Tg of non-crystalline Drug 1 was determined by DSC analysis to be 55° C., while the Tm of crystalline Drug 1 was 170° C.
A short description of data set [4]: Solubility in model fasted duodenal (MFD) solution. Particulars: fassgf or other biorelevant, PBS containing 7.3 mM sodium taurocholic acid and 1.4 mM POPC. It is filed as physicochemical.
The conditions of data set [5]: for Observations: pH 6.5. The procedure:
An appropriate PBS solution is an aqueous solution comprising 20 mM sodium phosphate (Na2HPO4), 47 mM potassium phosphate (KH2PO4), 87 mM NaCl, and 0.2 mM KCl, adjusted to pH 6.5 with NaOH. A test to determine whether the cellulosic polymer is insoluble may be performed as follows. The cellulosic polymer is initially present in bulk powder form with average particle sizes of greater than about 1 micron. The polymer alone is administered at a concentration of 0.2 mg/mL to the PBS solution and stirred for approximately 1 hour at room temperature. Next, a nylon 0.45 μm filter is weighed, and the solution is filtered. The filter is dried overnight at 40° C., and weighed the following morning.
First, 0.2 mg/mL of the polymer was added to a PBS solution consisting of 20 mM Na2HPO4, 47 mM KH2PO4, 87 mM NaCl, and 0.2 mM KCl, adjusted to pH 6.5 with NaOH. The polymer was stirred in the PBS solution for approximately 1 hour at room temperature. Next, the polymer solution was filtered through a nylon 0.45 μm filter that was weighed dry prior to filtration. The filter was dried overnight at 40° C., and weighed the following morning. The amount of soluble polymer was calculated from the amount of polymer added to form the polymer solution minus the amount of polymer remaining on the filter.

≈ marks a conversion by molar mass, not a printed value.

As a reminder, the logP is a log measure of how a compound divides between an organic and an aqueous phase. Read a low logP as a more hydrophilic compound. The term solubility denotes the dissolved amount per volume that the medium holds. A higher solubility goes with much dissolved substance. `Cc1onc(-c2ccccc2)c1-c1ccc(S(N)(=O)=O)cc1` [Drug 1, 4-(5-methyl-3-phenyl-4-isoxazolyl)benzenesulfonamide]: the logP in data set [1] is roughly 3. Further, the “Free Drug” value in data set [2] worked out at 11 µg/mL. In data set [3], this compound showed a solubility of roughly 10 µg/mL (≈ 31.8 µM).

Take `CC[C@@H]1C[C@H](N(Cc2cc(C(F)(F)F)cc(C(F)(F)F)c2)C(C)=O)c2cc(C(F)(F)F)ccc2N1C(=O)OC(C)C` [Drug 2, [2R,4S] 4-[acetyl-(3,5-bis-trifluoromethyl-benzyl)-amino]-2-ethyl-6-trifluoromethyl-3,4-dihydro-2H-quinoline-1-carboxylic acid isopropyl ester]: the solubility in data set [3] was less than 1 µg/mL.

In data set [4], `Cc1ccc(-c2cc(C(F)(F)F)nn2-c2ccc(S(N)(=O)=O)cc2)cc1` [Drug 3, celecoxib] had a solubility of roughly 40 µg/mL (≈ 105 µM).

Regarding Polyethylene glycol 8000 [PEG 8000], in data set [5], the “Soluble at pH 6.5” value amounted to 0.2 mg/mL and the Observations result was “Stabilizer dissolved”.

For the compound ethylcellulose, in data set [5], the “Amount Soluble at pH 6.5” value is less than 0.001 mg/mL and the Observations entry was “Fine particle suspension”.

In the case of “poly(DL-lactide-co-glycolide 50:50) [PLGA]”, in data set [5], the “Amount Soluble at pH 6.5” value is listed as 0.02 mg/mL and the Observations entry is on record as “Fine particle suspension”.
